# Results: PubChem BioAssay (NCI)
#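 Dose response: 5 concentrations. Exposure: 48 h. Format: 96-well plates. Endpoint: linear interpolation; highest concentration if not reached. GI50 = concentration required for 50% inhibition of growth. Definition used: TGI = concentration required for complete inhibition of growth.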
# Assays:
# Assay in all cases: NCI anticancer screen, dose series, 48 h
# [1] = tested on: MDA-MB-468 breast
# [2] = tested on: SNB-75 CNS
# [3] = tested on: IGROV1 ovarian
# [4] = tested on: UACC-62 melanoma
# [5] = tested on: NCI-H226 lung
# [6] = tested on: U251 CNS
# [7] = tested on: SF-268 CNS
# [8] = tested on: DU-145 prostate
# [9] = tested on: TK-10 renal
# [10] = tested on: CCRF-CEM leukemia
# [11] = tested on: CAKI-1 renal
# [12] = tested on: A498 renal
# [13] = tested on: HCT-15 colon
# [14] = tested on: NCI-H522 lung
# [15] = tested on: OVCAR-3 ovarian
# [16] = tested on: A549 NSCLC
# [17] = tested on: HT29 colon
# [18] = tested on: 786-0 renal
# [19] = tested on: COLO 205 colon
# [20] = tested on: HL-60(TB) leukemia
# [21] = tested on: EKVX NSCLC
# [22] = tested on: HOP-92 NSCLC
# [23] = tested on: MDA-MB-435
# [24] = tested on: K-562 leukemia
# [25] = tested on: UACC-257 melanoma
# [26] = tested on: OVCAR-8 ovarian
# [27] = tested on: SF-295 CNS
# [28] = tested on: MOLT-4 leukemia
# [29] = tested on: SW-620 colon
# [30] = tested on: T-47D breast
# [31] = tested on: PC-3 prostate
# [32] = tested on: MCF7 breast
# [33] = tested on: SF-539 CNS
# [34] = tested on: MDA-MB-231 breast
# [35] = tested on: KM12 colon
# [36] = tested on: HS 578T breast
# [37] = tested on: SNB-19 CNS
# [38] = tested on: SK-OV-3 ovarian
# [39] = tested on: SN12C renal
# [40] = tested on: SR leukemia
# [41] = tested on: HCC-2998 colon
# [42] = tested on: SK-MEL-28 melanoma
# [43] = tested on: HOP-62 NSCLC
# [44] = tested on: LOX IMVI melanoma
# [45] = tested on: NCI-H23 lung
# [46] = tested on: M14 melanoma
# [47] = tested on: BT-549 breast
# [48] = tested on: UO-31 renal
# [49] = tested on: OVCAR-5 ovarian
# [50] = tested on: RXF 393 renal
# [51] = tested on: RPMI-8226 leukemia
# [52] = tested on: SK-MEL-5 melanoma
# [53] = tested on: NCI/ADR-RES ovarian
# [54] = tested on: SK-MEL-2 melanoma
# [55] = tested on: MALME-3M melanoma
# [56] = tested on: NCI-H460 lung
# [57] = tested on: OVCAR-4 ovarian
# [58] = tested on: ACHN renal
structure (smiles),measurement,setting,value
COc1ccc(F)cc1-c1ccnc2[nH]c(C3=CCN(C4CCC(CC(=O)O)CC4)CC3)cc12 (stereo not drawn),GI50,[1],0.0779 µM
same,TGI,[1],0.444 µM
Cc1nc2sc(C(=O)Nc3ccccc3)c(N)c2cc1C(=O)c1ccccc1,GI50,[1],2.59 µM
same,TGI,[1],28.9 µM
CCOC(=O)N(O)c1ccc(/C=C/c2ccccc2)cc1,GI50,[1],0.025 µM
same,TGI,[1],0.0908 µM
COc1ccc(C2C3=C(COC3=O)N(CCO)c3cc4c(cc32)CCC4)cc1 (stereo not drawn),GI50,[1],1.36 µM
same,TGI,[1],5.33 µM
CN(C)CCOc1ccc2c(c1)C(=O)/C(=C\c1ncc([N+](=O)[O-])n1C)C2,GI50,[1],0.188 µM
same,TGI,[1],0.516 µM
COc1ccc(S(=O)(=O)Nc2cc(Sc3cccc4cccnc34)c(O)c3ccccc23)cc1,GI50,[1],1.15 µM
same,TGI,[1],3.12 µM
c1ccc2c(NCCCN3CCOCC3)c3oc4ccccc4c3nc2c1,GI50,[1],1.36 µM
same,TGI,[1],3.4 µM
N=C(N)c1ccc(-c2ccc(-c3ccc(Cl)cc3Cl)s2)nc1,GI50,[1],1.72 µM
same,TGI,[1],3.41 µM
CNc1nc(-c2ccc3c(N)n[nH]c3c2)cc(N2C[C@@H](C(=O)NC3CCCCC3)CC[C@H]2C)n1,GI50,[1],0.27 µM
same,TGI,[1],2.44 µM
COc1cc2c(=O)n(CC3CCCCC3)c3c4cc[nH]c4ncc3c2cc1OC,GI50,[1],4.61 µM
same,TGI,[1],25.6 µM
Cn1cc(-c2csc(-c3cn(C(=O)OC(C)(C)C)c4ccccc34)n2)c2cccnc21,GI50,[1],0.865 µM
same,TGI,[1],12.3 µM
C[C@@H]1Cc2c(ccc3[nH]ncc23)[C@@H](c2ccc(NC3CN(CCCF)C3)cn2)N1CC(F)(F)F,GI50,[1],13.4 µM
same,TGI,[1],27.8 µM
CC1=C(SCCC(=O)OC(C[Se]C2=C(C)C(=O)c3ccccc3C2=O)C(=O)NC(C)(C)C)C(=O)c2ccccc2C1=O (stereo not drawn),GI50,[1],0.226 µM
same,TGI,[1],0.657 µM
COC(=O)[C@@H](C)C[C@H](Cc1ccccc1)NC(=O)c1csc([C@@H](C[C@H](C(C)C)N(C)C(=O)[C@@H](NC(=O)[C@H]2CCCCN2C)C(C(F)(F)F)C(F)(F)F)OC(C)=O)n1,GI50,[1],0.0213 µM
same,TGI,[1],> 16.7 µM
CS(=O)(=O)CCNCc1ccoc1-c1ccc2ncnc(Nc3ccc(OCc4ccccc4)cc3)c2c1,GI50,[1],0.506 µM
same,TGI,[1],4.49 µM
C=Cc1cc(OC)c2c(c1)c(=O)oc1c2cc(OC)c2c(O)ccc(C3OC(C(C)O)C(O)C3O)c21 (stereo not drawn),GI50,[1],0.00491 µM
same,TGI,[1],> 1 µM
CC(C)(C)CC(C)(C)NCC(O)COc1ccc(C(C)(C)c2ccc(OCC(O)CNC(C)(C)CC(C)(C)C)cc2)cc1 (stereo not drawn),GI50,[1],1.31 µM
same,TGI,[1],2.77 µM
COC(=O)Nc1nc2ccc(C(=O)c3cccs3)cc2[nH]1,GI50,[1],0.161 µM
same,TGI,[1],> 100 µM
O=S(=O)(Nc1ccc(Cl)c(Cl)c1)c1ccc(-c2cnc(C3CC3)o2)cc1,GI50,[1],0.222 µM
same,TGI,[1],0.736 µM
O=C(N/N=C/c1ccc(N(CCCl)CCCl)cc1)c1ccc(C(=O)N/N=C/c2ccc(N(CCCl)CCCl)cc2)cc1,GI50,[1],1.6 µM
same,TGI,[1],80.6 µM
CC[C@@H](C(=O)[C@@H](C)[C@@H](O)[C@H](C)[C@@H]1O[C@@H]([C@@H](CC)C(=O)O)CC[C@@H]1C)[C@H]1O[C@]2(C=C[C@@H](O)[C@]3(CC[C@@](C)([C@H]4CC[C@](O)(CC)[C@H](C)O4)O3)O2)[C@H](C)C[C@@H]1C,GI50,[1],0.197 µM
same,TGI,[1],2.44 µM
CNC(=O)c1cc(-c2ccc(F)cc2)cc(-c2ccc(S(=O)(=O)N3CCCC3)cc2)c1N,GI50,[1],5.48 µM
same,TGI,[1],> 25 µM
CC(C)(C)c1ccc(CC(=O)Nc2sc3c(c2C(N)=O)CCC(=O)C3)cc1,GI50,[1],1.38 µM
same,TGI,[1],3.72 µM
COc1ccc(-c2nc3ccccc3n2CC(=O)N=Nc2c(O)[nH]c3ccc(OC)cc23)cc1,GI50,[2],7.41 µM
same,TGI,[2],22.1 µM
same,GI50,[3],12.3 µM
same,TGI,[3],25.4 µM
same,GI50,[4],11.2 µM
same,TGI,[4],23.3 µM
same,GI50,[5],1.8 µM
same,TGI,[5],3.99 µM
same,GI50,[6],12.5 µM
same,TGI,[6],25.3 µM
same,GI50,[7],13.3 µM
same,TGI,[7],31.6 µM
same,GI50,[8],4.53 µM
same,TGI,[8],15.5 µM
same,GI50,[9],10.9 µM
same,TGI,[9],23.1 µM
same,GI50,[10],27.5 µM
same,TGI,[10],> 100 µM
same,GI50,[1],2 µM
same,TGI,[1],5.17 µM
same,GI50,[11],2.77 µM
same,TGI,[11],8.75 µM
same,GI50,[12],15.4 µM
same,TGI,[12],29.6 µM
same,GI50,[13],3.01 µM
same,TGI,[13],11.7 µM
same,GI50,[14],6.18 µM
same,TGI,[14],22.9 µM
same,GI50,[15],12.5 µM
same,TGI,[15],26.6 µM
same,GI50,[16],4.51 µM
same,TGI,[16],17.5 µM
same,GI50,[17],2.17 µM
same,TGI,[17],4.9 µM
same,GI50,[18],1.77 µM
same,TGI,[18],4.26 µM
same,GI50,[19],16.1 µM
same,TGI,[19],33.9 µM
same,GI50,[20],2.83 µM
same,TGI,[20],13.5 µM
same,GI50,[21],11.2 µM
same,TGI,[21],28.2 µM
same,GI50,[22],8.19 µM
same,TGI,[22],26.4 µM
same,GI50,[23],4.09 µM
same,TGI,[23],15.1 µM
same,GI50,[24],4.1 µM
same,TGI,[24],95.8 µM
same,GI50,[25],2.56 µM
same,TGI,[25],7.16 µM
same,GI50,[26],2.3 µM
same,TGI,[26],5.85 µM
same,GI50,[27],14.3 µM
same,TGI,[27],34.7 µM
same,GI50,[28],5.71 µM
same,TGI,[28],36.5 µM
same,GI50,[29],4.46 µM
same,TGI,[29],19.7 µM
same,GI50,[30],3.46 µM
same,TGI,[30],16.3 µM
same,GI50,[31],12.1 µM
same,TGI,[31],42.3 µM
same,GI50,[32],2.01 µM
same,TGI,[32],4.72 µM
same,GI50,[33],2.95 µM
same,TGI,[33],9.35 µM
same,GI50,[34],5.76 µM
same,TGI,[34],19.2 µM
same,GI50,[35],15.2 µM
same,TGI,[35],33.8 µM
same,GI50,[36],6.39 µM
same,TGI,[36],32.3 µM
same,GI50,[37],15.3 µM
same,TGI,[37],29.5 µM
same,GI50,[38],15.6 µM
same,TGI,[38],30.8 µM
same,GI50,[39],6.02 µM
same,TGI,[39],19.3 µM
same,GI50,[40],2.52 µM
same,TGI,[40],25.7 µM
same,GI50,[41],6.54 µM
same,TGI,[41],19 µM
same,GI50,[42],4.4 µM
same,TGI,[42],19.9 µM
same,GI50,[43],17.5 µM
same,TGI,[43],35.1 µM
same,GI50,[44],2.02 µM
same,TGI,[44],4.76 µM
same,GI50,[45],10.4 µM
same,TGI,[45],23.5 µM
same,GI50,[46],3.15 µM
same,TGI,[46],11 µM
same,GI50,[47],2.52 µM
same,TGI,[47],6.47 µM
same,GI50,[48],11.2 µM
same,TGI,[48],23.2 µM
same,GI50,[49],13.8 µM
same,TGI,[49],33.6 µM
same,GI50,[50],1.87 µM
same,TGI,[50],3.59 µM
same,GI50,[51],13.2 µM
same,TGI,[51],> 100 µM
same,GI50,[52],5.37 µM
same,TGI,[52],18.3 µM
same,GI50,[53],2.02 µM
same,TGI,[53],5.18 µM
same,GI50,[54],17.6 µM
same,TGI,[54],33.6 µM
same,GI50,[55],3.28 µM
same,TGI,[55],12.7 µM
same,GI50,[56],4.22 µM
same,TGI,[56],15.4 µM
same,GI50,[57],11.6 µM
same,TGI,[57],30 µM
same,GI50,[58],2.39 µM
same,TGI,[58],6.62 µM
c1ccc(-c2cc3n4c(-c5ccccc5)nn(-c5ccccc5)c4cnc-3n2)cc1,GI50,[1],4.38 µM
same,TGI,[1],> 50 µM
COC(=O)c1cc(C)[nH]c2c(C)cc3nc4ccccc4c3c12,GI50,[1],3.76 µM
same,TGI,[1],12.3 µM
Cc1c2ccccc2c(C)n2c1nc1cc(Cl)c(Cl)cc12,GI50,[1],27.6 µM
same,TGI,[1],> 100 µM
CCCCCCCCc1cc(O)ccc1O,GI50,[1],11.3 µM
same,TGI,[1],28.6 µM
C[C@@H](C[C@H](CCO)c1ccccc1)c1ccc2ccccc2c1,GI50,[1],1.53 µM
same,TGI,[1],2.98 µM
N=C1C=C(N)C(=O)c2ccccc21,GI50,[1],0.112 µM
same,TGI,[1],0.248 µM
NC1=C(O)C(=O)C(c2c[nH]c3ccc(OCc4ccccc4)cc23)O1 (stereo not drawn),GI50,[1],> 100 µM
same,TGI,[1],> 100 µM
CSc1nc2ccc(C)cc2cc1/C=C1/C=C(c2ccccc2)NC1=O,GI50,[1],5.77 µM
same,TGI,[1],61.3 µM
